Test results as given in patent US11318137B2, “Quinazoline compounds as modulators of Ras signaling” (VANDERBILT UNIVERSITY, priority 2017, dated 2022).

Experiments:
[1] = biological target: T1, SOS-mediated nucleotide exchange on Ras (Homo sapiens, UniProt Q07889); test: SOS-mediated nucleotide exchange on Ras (BODIPY-GDP fluorescence); format: biochemical; details: Ras loaded with BODIPY-GDP, GTP and SOS added; EC50 from derived exchange rates
T1 sequence (Q07889 1-1333): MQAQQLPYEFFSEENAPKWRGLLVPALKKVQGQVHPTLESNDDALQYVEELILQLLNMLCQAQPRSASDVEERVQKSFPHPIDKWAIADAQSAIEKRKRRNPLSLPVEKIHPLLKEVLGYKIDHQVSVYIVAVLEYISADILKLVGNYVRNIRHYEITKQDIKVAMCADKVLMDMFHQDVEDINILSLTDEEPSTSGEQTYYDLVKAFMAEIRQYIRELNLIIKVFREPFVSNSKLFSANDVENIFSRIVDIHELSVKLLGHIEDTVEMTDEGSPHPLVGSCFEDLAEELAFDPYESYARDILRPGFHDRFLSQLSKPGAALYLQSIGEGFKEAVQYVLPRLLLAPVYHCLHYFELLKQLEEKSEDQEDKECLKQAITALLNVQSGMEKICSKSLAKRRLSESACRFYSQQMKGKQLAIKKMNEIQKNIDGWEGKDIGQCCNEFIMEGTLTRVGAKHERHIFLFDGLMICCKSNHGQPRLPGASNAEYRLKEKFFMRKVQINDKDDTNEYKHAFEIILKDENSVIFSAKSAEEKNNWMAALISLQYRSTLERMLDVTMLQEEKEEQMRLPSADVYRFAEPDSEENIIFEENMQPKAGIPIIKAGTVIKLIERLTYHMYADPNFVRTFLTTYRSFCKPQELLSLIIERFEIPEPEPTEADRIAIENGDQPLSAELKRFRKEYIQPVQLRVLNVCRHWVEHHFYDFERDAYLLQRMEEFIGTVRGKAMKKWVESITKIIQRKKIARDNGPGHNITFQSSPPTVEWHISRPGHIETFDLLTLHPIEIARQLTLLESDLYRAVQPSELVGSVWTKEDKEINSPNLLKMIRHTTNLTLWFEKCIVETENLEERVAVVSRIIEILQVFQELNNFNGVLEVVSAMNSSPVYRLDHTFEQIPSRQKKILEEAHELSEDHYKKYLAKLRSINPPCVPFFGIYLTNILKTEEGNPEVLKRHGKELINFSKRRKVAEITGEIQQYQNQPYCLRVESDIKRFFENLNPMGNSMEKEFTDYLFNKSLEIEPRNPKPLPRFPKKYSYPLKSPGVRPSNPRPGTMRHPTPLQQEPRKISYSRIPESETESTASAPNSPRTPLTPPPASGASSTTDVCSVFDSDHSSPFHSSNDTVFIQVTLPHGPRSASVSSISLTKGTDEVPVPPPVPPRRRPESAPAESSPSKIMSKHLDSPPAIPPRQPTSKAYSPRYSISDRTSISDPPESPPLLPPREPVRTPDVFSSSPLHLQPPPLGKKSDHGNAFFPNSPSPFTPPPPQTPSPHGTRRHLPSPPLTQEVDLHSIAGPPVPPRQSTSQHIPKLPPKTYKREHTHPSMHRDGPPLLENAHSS
Summary of the method: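 Compound, then GTP and SOS, were added to buffered Ras preloaded with BODIPY-GDP, and the fluorescence change from labeled GDP being exchanged for GTP was followed over time. Rates came from single-exponential fits, and EC50 from a four-parameter fit of mean rate against compound concentration.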

[2] = biological target: T2, Son of Sevenless (SOS) (Homo sapiens, UniProt Q07889); test: Binding to SOS, fluorescence polarization anisotropy (FPA) displacement of FITC-conjugated probe; details: binding affinity calculated from IC50 of FITC-probe displacement, read-out: Binding affinities (binding affinity to SOS)
T2 sequence (Q07889 564-1049 limits assumed): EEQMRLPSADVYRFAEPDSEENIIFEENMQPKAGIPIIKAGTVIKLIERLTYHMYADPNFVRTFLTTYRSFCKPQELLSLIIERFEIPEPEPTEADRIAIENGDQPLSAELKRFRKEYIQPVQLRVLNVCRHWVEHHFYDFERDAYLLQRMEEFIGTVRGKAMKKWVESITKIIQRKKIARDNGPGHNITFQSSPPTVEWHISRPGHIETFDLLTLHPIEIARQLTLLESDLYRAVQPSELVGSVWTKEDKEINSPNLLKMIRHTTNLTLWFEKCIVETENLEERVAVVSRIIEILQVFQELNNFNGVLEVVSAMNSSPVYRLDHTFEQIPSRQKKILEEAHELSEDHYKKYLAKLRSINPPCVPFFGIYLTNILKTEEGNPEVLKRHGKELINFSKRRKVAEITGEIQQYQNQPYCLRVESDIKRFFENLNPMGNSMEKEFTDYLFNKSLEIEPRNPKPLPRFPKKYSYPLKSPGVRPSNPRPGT
Experimental: Compounds of the present invention were tested for their ability to the Ras guanine exchange factor (GEF) Son of Sevenless (SOS). Binding to SOS was measured using a Fluorescence polarization anisotropy (FPA) assay that assesses the ability of a test compound to displace a fluorescent FITC-conjugated compound. Briefly, the labeled probe compound is incubated with SOS in buffer. Changes in anisotropy indicative of displacement of the labeled probe for a test compound are assessed over a dose range of test compound. Data was analyzed by plotting fluorescence anisotropy values as a function of compound concentration. IC50 values were determined using a four-parameter dose-response (variable slope) and binding affinities were calculated from this IC50 value. This assay is performed in a method analogous to the assay disclosed in: Burns, M. C.; Sun, Q.; Daniels, R. N.; Camper, D. V.; Kennedy, J. P.; Phan, J.; Olejniczak, E. O.; Lee, T.; Waterson, A. G.; Rossanese, O. W.; Fesik, S. W. “Approach for targeting Ras with small molecules that activate SOS-mediated nucleotide exchange” Proc. Natl. Acad. Sci. 2014; 11(9): 3401-3406. PMCID: PMC3948241.

Row | EC50 [1] | Ki [2] | Compound
1 | < 1 µM | < 1 µM | CC[C@@H](Nc1nc(NCC2CCCCC2)nc2c(C3=CCNCC3)cccc12)C1CC1 [Example 125, (R)—N^2-(cyclohexylmethyl)-N^4-(1-cyclopropylpropyl)-8-(1,2,3,6-tetrahydropyridin-4-yl)quinazoline-2,4-diamine]
2 | 1 to 5 µM | < 1 µM | CC[C@@H](Nc1nc(NCC2CCCCC2)nc2c(CCN)cccc12)C1CC1 [Example 127, (R)-8-(2-aminoethyl)-N^2-(cyclohexylmethyl)-N^4-(1-cyclopropylpropyl)quinazoline-2,4-diamine]
3 | 1 to 5 µM | < 1 µM | C=CC[C@@H](Nc1nc(NCC2CCCCC2)nc2c(C3=CCNCC3)cccc12)C1CC1 [Example 117, (R)—N^2-(cyclohexylmethyl)-N^4-(1-cyclopropylbut-3-en-1-yl)-8-(1,2,3,6-tetrahydropyridin-4-yl)quinazoline-2,4-diamine]
4 | 5 to 30 µM | > 5 µM | C[C@@H](Nc1nc(Nc2ccc(F)c(Cl)c2)nc2c(CCN)cccc12)C(C)(C)C [Example 82, (R)-8-(2-aminoethyl)-N^2-(3-chloro-4-fluorophenyl)-N^4-(3,3-dimethylbutan-2-yl)quinazoline-2,4-diamine]
5 | 5 to 30 µM | > 5 µM | C[C@@H](Nc1nc(Nc2ccc(F)c(Cl)c2)nc2c(NCC3CNC3)cccc12)C1CC1 [Example 111, (R)—N^8-(azetidin-3-ylmethyl)-N^2-(3-chloro-4-fluorophenyl)-N^4-(1-cyclopropylethyl)quinazoline-2,4,8-triamine]
6 | 5 to 30 µM | 1 to 5 µM | C[C@@H](Nc1nc(NCC2CCCCC2)nc2c(CCN)cccc12)C(C)(C)C [Example 84, (R)-8-(2-aminoethyl)-N^2-(cyclohexylmethyl)-N^4-(3,3-dimethylbutan-2-yl)quinazoline-2,4-diamine]
7 | 1 to 5 µM | 1 to 5 µM | Cc1cc(F)cc(Nc2nc(N[C@H](C)C3CC3)c3cccc(CCN)c3n2)c1 [Example 118, (R)-8-(2-aminoethyl)-N^4-(1-cyclopropylethyl)-N^2-(3-fluoro-5-methylphenyl)quinazoline-2,4-diamine]
8 | < 1 µM | 1 to 5 µM | C[C@@H](Nc1nc(NCC2CCC2)nc2c(C3=CCNCC3)cccc12)C1CC1 [Example 106, (R)—N^2-(cyclobutylmethyl)-N^4-(1-cyclopropylethyl)-8-(1,2,3,6-tetrahydropyridin-4-yl)quinazoline-2,4-diamine]
9 | 1 to 5 µM | < 1 µM | C[C@@H](Nc1nc(NCC2CCCCC2)nc2c(CCN)cccc12)C1CC1 [Example 77]
10 | 5 to 30 µM | 1 to 5 µM | C[C@@H](Nc1nc(NCc2cccc(Cl)c2F)nc2c(CCN)cccc12)C(C)(C)C [Example 85, (R)-8-(2-aminoethyl)-N^2-(3-chloro-2-fluorobenzyl)-N^4-(3,3-dimethylbutan-2-yl)quinazoline-2,4-diamine]

Second part, the compound before the results:

Row | Compound | EC50 [1] | Ki [2]
11 | CC[C@@H](Nc1nc(Nc2cc(F)cc(F)c2)nc2ccccc12)C1CC1 [Example 35, (R)—N^4-(1-cyclopropylpropyl)-N^2-(3,5-difluorophenyl)quinazoline-2,4-diamine] | 1 to 5 µM | > 5 µM
12 | C[C@@H](Nc1nc(Nc2ccc(F)c(Cl)c2)nc2c(CN)cccc12)C(C)(C)C [Example 130, (R)-8-(aminomethyl)-N^2-(3-chloro-4-fluorophenyl)-N^4-(3,3-dimethylbutan-2-yl)quinazoline-2,4-diamine] | 5 to 30 µM | > 5 µM
13 | CCC[C@@H](Nc1nc(Nc2ccc(F)c(Cl)c2)nc2ccccc12)C1CC1 [Example 36, (R)—N^2-(3-chloro-4-fluorophenyl)-N^4-(1-cyclopropylbutyl)quinazoline-2,4-diamine] | 1 to 5 µM | > 5 µM
14 | C[C@@H](Nc1nc(NCc2cccc(Cl)c2F)nc2c(CN)cccc12)c1cccs1 [Example 97, (R)-8-(aminomethyl)-N^2-(3-chloro-2-fluorobenzyl)-N^4-(1-(thiophen-2-yl)ethyl)quinazoline-2,4-diamine] | 5 to 30 µM | > 5 µM
15 | C[C@@H](Nc1nc(Nc2ccc(F)c(Cl)c2)nc2ccccc12)c1cccs1 [Example 37, (R)—N^2-(3-chloro-4-fluorophenyl)-N^4-(1-(thiophen-2-yl)ethyl)quinazoline-2,4-diamine] | 1 to 5 µM | > 5 µM
16 | C[C@@H](Nc1nc(Nc2ccc(F)c(Cl)c2)nc2c(N3CCNCC3)cccc12)C1CC1 [Example 52, (R)—N^2-(3-chloro-4-fluorophenyl)-N^4-(1-cyclopropylethyl)-8-(piperazin-1-yl)quinazoline-2,4-diamine] | 1 to 5 µM | 1 to 5 µM
17 | C[C@@H](Nc1nc(NCc2cccc(Cl)c2F)nc2c(CCN)cccc12)c1cccs1 [Example 94, (R)-8-(2-aminoethyl)-N^2-(3-chloro-2-fluorobenzyl)-N^4-(1-(thiophen-2-yl)ethyl)quinazoline-2,4-diamine] | 1 to 5 µM | 1 to 5 µM
18 | Clc1ccc(Nc2nc(NCc3ccco3)c3ccccc3n2)cc1Cl [Example 32, N^2-(3,4-dichlorophenyl)-N^4-(furan-2-ylmethyl)quinazoline-2,4-diamine] | 1 to 5 µM | > 5 µM
19 | C[C@@H](Nc1nc(Nc2ccc(F)c(Cl)c2)nc2c(CCN)cccc12)c1cccs1 [Example 91, (R)-8-(2-aminoethyl)-N^2-(3-chloro-4-fluorophenyl)-N^4-(1-(thiophen-2-yl)ethyl)quinazoline-2,4-diamine] | 5 to 30 µM | 1 to 5 µM
20 | C[C@@H](Nc1nc(Nc2cc(F)cc(F)c2)nc2ccccc12)c1cccs1 [Example 38, (R)—N^2-(3,5-difluorophenyl)-N^4-(1-(thiophen-2-yl)ethyl)quinazoline-2,4-diamine] | 1 to 5 µM | > 5 µM
21 | C=CC[C@@H](Nc1nc(Nc2cc(F)cc(F)c2)nc2c(C3=CCNCC3)cccc12)C1CC1 [Example 116, (R)—N^4-(1-cyclopropylbut-3-en-1-yl)-N^2-(3,5-difluorophenyl)-8-(1,2,3,6-tetrahydropyridin-4-yl)quinazoline-2,4-diamine] | 1 to 5 µM | < 1 µM
22 | C[C@@H](Nc1nc(Nc2ccc(F)c(Cl)c2)nc2c(N3CCOCC3)cccc12)C1CC1 [Example 124, (R)—N^2-(3-chloro-4-fluorophenyl)-N^4-(1-cyclopropylethyl)-8-morpholinoquinazoline-2,4-diamine] | 5 to 30 µM | > 5 µM
